Measurements: ChEMBL document CHEMBL1201862, “PubChem BioAssay data set” (2004)
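Where inhibition never reached the appropriate level, the endpoint shown equals the highest concentration tested. Otherwise, values were interpolated linearly from a five-concentration, 48-hour dose response in 96-well plates. At the GI50, growth is halved.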 The source made the active and inactive calls. No stated cut-off is given here; in the data, active = GI50 up to about 1.1 µM and inactive = higher.

How the values were obtained:
Experiment in all cases: NCI tumour cell line growth inhibition, 48 h
SK-MEL-28 = test system: SK-MEL-28
HOP-92 = test system: HOP-92
HCT-15 = test system: HCT-15
MDA-MB-231 = test system: MDA-MB-231
SNB-75 = test system: SNB-75
NCI-H460 = test system: NCI-H460
HOP-62 = test system: HOP-62
RXF 393 = test system: RXF 393
BT-549 = test system: BT-549
SW-620 = test system: SW-620
COLO 205 = test system: COLO 205
UO-31 = test system: UO-31
UACC-62 = test system: UACC-62
K562 = test system: K562
T47D = test system: T47D
HL-60 = test system: HL-60
RPMI-8226 = test system: RPMI-8226

Compound | GI50 (SK-MEL-28) | GI50 (HOP-92) | GI50 (HCT-15) [µM] | GI50 (MDA-MB-231) | GI50 (SNB-75) | GI50 (NCI-H460) | GI50 (HOP-62) | GI50 (RXF 393) | GI50 (BT-549) | GI50 (SW-620) | GI50 (COLO 205) | GI50 (UO-31) | GI50 (UACC-62) | GI50 (K562) | GI50 (T47D) | GI50 (HL-60) | GI50 (RPMI-8226)
C[N+]1([O-])C2CCC1CC(OC(=O)C(CO)c1ccccc1)C2 (centres undefined) | > 100 µM (inactive) | > 63.2 µM (inactive) | > 55.8 | > 100 µM (inactive) | > 100 µM (inactive) | > 100 µM (inactive) | > 100 µM (inactive) | > 100 µM (inactive) | > 66.5 µM (inactive) | > 100 µM (inactive) | > 100 µM (inactive) | > 100 µM (inactive) | > 100 µM (inactive) | > 100 µM (inactive) | > 100 µM (inactive) | > 100 µM (inactive) | > 100 µM (inactive)
Cc1nc2ccccc2c(=O)n1NC(=O)c1ccccc1[N+](=O)[O-] | > 100 µM (inactive) | > 100 µM (inactive) | > 100 | > 100 µM (inactive) | 81.5 µM (inactive) | > 100 µM (inactive) | > 100 µM (inactive) | > 10 µM (inactive) | > 100 µM (inactive) | > 100 µM (inactive) | – | > 100 µM (inactive) | > 100 µM (inactive) | > 100 µM (inactive) | > 100 µM (inactive) | > 100 µM (inactive) | > 100 µM (inactive)
Clc1ccc2nc3c(c(-c4ccccc4)nn3-c3ccccc3)c(-c3ccccc3)c2c1 | > 100 µM (inactive) | > 100 µM (inactive) | > 100 | > 100 µM (inactive) | > 100 µM (inactive) | > 100 µM (inactive) | > 100 µM (inactive) | – | > 100 µM (inactive) | > 100 µM (inactive) | > 100 µM (inactive) | > 100 µM (inactive) | > 100 µM (inactive) | > 100 µM (inactive) | > 100 µM (inactive) | > 100 µM (inactive) | > 100 µM (inactive)
CC(C)(C)OC(=O)N1C(OP(=O)(Oc2ccccc2)Oc2ccccc2)=CSc2ccccc21 | 26.5 µM (inactive) | 27.9 µM (inactive) | 37.5 | 24 µM (inactive) | 31 µM (inactive) | 29.1 µM (inactive) | 47.6 µM (inactive) | 41.8 µM (inactive) | 48.4 µM (inactive) | 41.2 µM (inactive) | 20.4 µM (inactive) | 27.4 µM (inactive) | 46.9 µM (inactive) | 38.3 µM (inactive) | 27.4 µM (inactive) | 20.1 µM (inactive) | 17.8 µM (inactive)
[N-]=[N+]=Nc1ccc(NCCCCCC(=O)ON2C(=O)CCC2=O)c([N+](=O)[O-])c1 | 74.1 µM (inactive) | 10.3 µM (inactive) | > 100 | 77.1 µM (inactive) | 72.9 µM (inactive) | 61.7 µM (inactive) | 72.9 µM (inactive) | 40.8 µM (inactive) | > 100 µM (inactive) | 60.1 µM (inactive) | > 100 µM (inactive) | 46.3 µM (inactive) | 33.1 µM (inactive) | 22.4 µM (inactive) | 62.1 µM (inactive) | 32.5 µM (inactive) | –
CCOC(=O)c1c(N)sc2c1C(C(=O)OCC)CC2 (centres undefined) | > 100 µM (inactive) | > 100 µM (inactive) | > 100 | 76.7 µM (inactive) | 79.3 µM (inactive) | 62.1 µM (inactive) | > 100 µM (inactive) | > 100 µM (inactive) | 72.3 µM (inactive) | > 100 µM (inactive) | > 100 µM (inactive) | 62.4 µM (inactive) | 91.4 µM (inactive) | 46.5 µM (inactive) | 18.2 µM (inactive) | 31.5 µM (inactive) | 45.3 µM (inactive)
C/C(=N/S(=O)(=O)c1ccc(Cl)c(Cl)c1)OCC(C)(C)C | > 100 µM (inactive) | > 100 µM (inactive) | > 100 | > 100 µM (inactive) | > 100 µM (inactive) | > 100 µM (inactive) | > 100 µM (inactive) | > 100 µM (inactive) | > 100 µM (inactive) | > 100 µM (inactive) | > 100 µM (inactive) | > 100 µM (inactive) | > 100 µM (inactive) | > 100 µM (inactive) | > 100 µM (inactive) | 6.98 µM (inactive) | > 100 µM (inactive)
CC[C@]1(Cc2ccc(OC)c(OC)c2)C=[N+]([O-])O[C@H](OC2CCCC2(c2ccccc2)c2ccccc2)[C@@H]1OC(C)=O (some centres undefined) | 1.81 µM (inactive) | 3.21 µM (inactive) | 3.37 | 11 µM (inactive) | 2.82 µM (inactive) | 5.4 µM (inactive) | 12.4 µM (inactive) | 1.52 µM (inactive) | 8.47 µM (inactive) | 3.44 µM (inactive) | 3.35 µM (inactive) | 3.12 µM (inactive) | 2.68 µM (inactive) | 2.98 µM (inactive) | 2.96 µM (inactive) | 3.36 µM (inactive) | –
CCc1[nH]nc(C(N)=O)c1/N=N/N(C)C | > 100 µM (inactive) | 36.4 µM (inactive) | 68.4 | > 100 µM (inactive) | 65.9 µM (inactive) | – | 82.6 µM (inactive) | > 100 µM (inactive) | 21.8 µM (inactive) | > 100 µM (inactive) | 98.9 µM (inactive) | 2.58 µM (inactive) | 34.4 µM (inactive) | 1.13 µM (inactive) | 68.4 µM (inactive) | 9.62 µM (inactive) | 81.5 µM (inactive)
O=C(NCCCCN(CCCNC(=O)C(F)(F)F)Cc1ccc2ccccc2c1)C(F)(F)F | 16.7 µM (inactive) | 16.7 µM (inactive) | 17.3 | 16.7 µM (inactive) | 11.5 µM (inactive) | 16.4 µM (inactive) | – | 17.5 µM (inactive) | 17.1 µM (inactive) | 15.3 µM (inactive) | 14.9 µM (inactive) | 8.04 µM (inactive) | 19.1 µM (inactive) | 16.7 µM (inactive) | 17.7 µM (inactive) | 65.2 µM (inactive) | > 10 µM (inactive)
c1ccc2c(c1)ccc1cc3cc(NCCCCNc4ccc5nc6c(ccc7ccccc76)cc5c4)ccc3nc12 | 2.1 µM (inactive) | 1.58 µM (inactive) | 0.701 | 0.154 µM (active) | 1.91 µM (inactive) | 0.231 µM (active) | 0.212 µM (active) | 1.58 µM (inactive) | 2 µM (inactive) | 0.195 µM (active) | 1.69 µM (inactive) | 1.21 µM (inactive) | 1.67 µM (inactive) | 1.63 µM (inactive) | 0.455 µM (active) | – | 0.323 µM (active)
CCC(C)c1cnc(CC(C)C)c(=O)[nH]1 (centres undefined) | > 100 µM (inactive) | > 100 µM (inactive) | > 100 | > 100 µM (inactive) | > 100 µM (inactive) | > 100 µM (inactive) | > 100 µM (inactive) | > 100 µM (inactive) | > 100 µM (inactive) | > 100 µM (inactive) | > 100 µM (inactive) | > 100 µM (inactive) | > 100 µM (inactive) | > 100 µM (inactive) | > 100 µM (inactive) | – | > 100 µM (inactive)
N[C@H](C(=O)O)[C@@H]1CC(Br)=NO1 | 32.7 µM (inactive) | > 29.4 µM (inactive) | 6.38 | > 100 µM (inactive) | 16.8 µM (inactive) | 4.31 µM (inactive) | 12.2 µM (inactive) | 11.9 µM (inactive) | > 27 µM (inactive) | 5.87 µM (inactive) | 33.3 µM (inactive) | 6.46 µM (inactive) | 27.7 µM (inactive) | 20.6 µM (inactive) | > 34.1 µM (inactive) | > 48.4 µM (inactive) | –
COC(=O)C(/C(=N/N)C(=O)Nc1cc(Cl)c(Cl)cc1Cl)c1nc2ccc(Cl)cc2nc1O (centres undefined) | > 100 µM (inactive) | > 100 µM (inactive) | > 100 | > 100 µM (inactive) | > 100 µM (inactive) | > 100 µM (inactive) | > 100 µM (inactive) | > 100 µM (inactive) | > 100 µM (inactive) | > 100 µM (inactive) | – | 42.5 µM (inactive) | > 100 µM (inactive) | > 100 µM (inactive) | > 100 µM (inactive) | > 100 µM (inactive) | > 100 µM (inactive)
N=C(N)SC(c1ccccc1)c1ccccc1 | 4.84 µM (inactive) | 6.87 µM (inactive) | 16.4 | 15.2 µM (inactive) | – | 16.6 µM (inactive) | 19.6 µM (inactive) | 6.52 µM (inactive) | 17.6 µM (inactive) | 16.8 µM (inactive) | 21.8 µM (inactive) | 11.2 µM (inactive) | 16 µM (inactive) | 22.4 µM (inactive) | 6.32 µM (inactive) | 17.1 µM (inactive) | 10.2 µM (inactive)
CN(C)CC1CCC/C(=C\c2ccc(Cl)c(Cl)c2)C1=O (centres undefined) | 5.14 µM (inactive) | 4.38 µM (inactive) | 2.41 | 4.65 µM (inactive) | 7.41 µM (inactive) | 9.2 µM (inactive) | 9.04 µM (inactive) | – | 2.33 µM (inactive) | – | 2.67 µM (inactive) | 2.74 µM (inactive) | 3.61 µM (inactive) | 1.93 µM (inactive) | 2.31 µM (inactive) | 1.97 µM (inactive) | 0.205 µM (active)
O=c1c2cccnc2[nH]c2ccc3scnc3c12 | > 10 µM (inactive) | 8.17 µM (inactive) | 4.92 | > 10 µM (inactive) | 6.31 µM (inactive) | 7.01 µM (inactive) | > 10 µM (inactive) | 3.11 µM (inactive) | > 10 µM (inactive) | > 10 µM (inactive) | 5.12 µM (inactive) | – | > 10 µM (inactive) | – | > 10 µM (inactive) | 4.86 µM (inactive) | > 10 µM (inactive)
